From US5043273A, “Phosphorylated glycosidase inhibitor prodrugs” (Monsanto Company, priority 1989, dated 1991)
Like-named read-outs stand apart in the source and are kept apart here.

Columns and labels:
[1] = target: T1, Porcine Microsomal Alpha-Glucosidase I (Sus scrofa, UniProt K7N7E7); test: Inhibition constants against porcine microsomal alpha-glucosidase I; type: biochemical
T1 construct: Alpha-glucosidase I was isolated from porcine liver microsomes; from tissue; host or cells: porcine liver microsomes
T1 sequence (K7N7E7 1-839): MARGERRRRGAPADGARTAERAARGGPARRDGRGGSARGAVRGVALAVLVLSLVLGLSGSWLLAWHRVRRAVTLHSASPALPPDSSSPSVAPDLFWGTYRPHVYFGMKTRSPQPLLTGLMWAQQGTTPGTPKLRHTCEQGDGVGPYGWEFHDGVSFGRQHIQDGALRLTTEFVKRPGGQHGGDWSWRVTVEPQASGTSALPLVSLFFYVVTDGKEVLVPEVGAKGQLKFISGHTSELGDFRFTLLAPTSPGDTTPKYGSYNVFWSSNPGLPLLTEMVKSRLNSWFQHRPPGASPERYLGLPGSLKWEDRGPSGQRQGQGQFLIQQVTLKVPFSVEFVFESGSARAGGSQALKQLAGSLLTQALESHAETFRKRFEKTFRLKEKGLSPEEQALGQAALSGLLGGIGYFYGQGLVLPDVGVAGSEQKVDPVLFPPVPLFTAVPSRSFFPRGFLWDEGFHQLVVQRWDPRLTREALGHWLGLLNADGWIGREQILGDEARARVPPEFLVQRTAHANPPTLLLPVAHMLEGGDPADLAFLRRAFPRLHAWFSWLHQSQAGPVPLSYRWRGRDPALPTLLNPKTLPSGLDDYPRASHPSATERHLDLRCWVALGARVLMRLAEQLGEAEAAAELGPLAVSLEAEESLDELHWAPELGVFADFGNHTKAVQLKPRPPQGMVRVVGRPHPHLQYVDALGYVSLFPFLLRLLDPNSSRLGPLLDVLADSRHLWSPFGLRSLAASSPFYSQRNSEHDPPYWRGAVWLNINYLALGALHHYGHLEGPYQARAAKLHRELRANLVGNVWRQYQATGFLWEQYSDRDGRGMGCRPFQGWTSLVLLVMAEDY
Description: Porcine Microsomal Alpha-Glucosidase I. Alpha-glucosidase I was isolated from porcine liver microsomes by an affinity chromatographic method similar to that described by Hettkamp et.al., Eur J. Biochem. 142, 85-90 (1981).
Inhibition constants for the various DNJ derivatives and castanospermine were determined assuming competitive inhibition and were derived from the initial rates for the hydrolysis of [^14 C-Glc]Glc3 Man9 GlcNAc2 (at a concentration of 0.044 μM), at pH7.0 and 37° C. in the presence and absence of several fixed concentrations of each inhibitor.

[2] = target: T2, Porcine Intestinal Sucrase (Sus scrofa, UniProt P56729); test: Inhibition constants against porcine intestinal sucrase; type: biochemical
T2 construct: both chains cut from one SI precursor
T2 sequence (P56729 with tags, fused parts or gaps): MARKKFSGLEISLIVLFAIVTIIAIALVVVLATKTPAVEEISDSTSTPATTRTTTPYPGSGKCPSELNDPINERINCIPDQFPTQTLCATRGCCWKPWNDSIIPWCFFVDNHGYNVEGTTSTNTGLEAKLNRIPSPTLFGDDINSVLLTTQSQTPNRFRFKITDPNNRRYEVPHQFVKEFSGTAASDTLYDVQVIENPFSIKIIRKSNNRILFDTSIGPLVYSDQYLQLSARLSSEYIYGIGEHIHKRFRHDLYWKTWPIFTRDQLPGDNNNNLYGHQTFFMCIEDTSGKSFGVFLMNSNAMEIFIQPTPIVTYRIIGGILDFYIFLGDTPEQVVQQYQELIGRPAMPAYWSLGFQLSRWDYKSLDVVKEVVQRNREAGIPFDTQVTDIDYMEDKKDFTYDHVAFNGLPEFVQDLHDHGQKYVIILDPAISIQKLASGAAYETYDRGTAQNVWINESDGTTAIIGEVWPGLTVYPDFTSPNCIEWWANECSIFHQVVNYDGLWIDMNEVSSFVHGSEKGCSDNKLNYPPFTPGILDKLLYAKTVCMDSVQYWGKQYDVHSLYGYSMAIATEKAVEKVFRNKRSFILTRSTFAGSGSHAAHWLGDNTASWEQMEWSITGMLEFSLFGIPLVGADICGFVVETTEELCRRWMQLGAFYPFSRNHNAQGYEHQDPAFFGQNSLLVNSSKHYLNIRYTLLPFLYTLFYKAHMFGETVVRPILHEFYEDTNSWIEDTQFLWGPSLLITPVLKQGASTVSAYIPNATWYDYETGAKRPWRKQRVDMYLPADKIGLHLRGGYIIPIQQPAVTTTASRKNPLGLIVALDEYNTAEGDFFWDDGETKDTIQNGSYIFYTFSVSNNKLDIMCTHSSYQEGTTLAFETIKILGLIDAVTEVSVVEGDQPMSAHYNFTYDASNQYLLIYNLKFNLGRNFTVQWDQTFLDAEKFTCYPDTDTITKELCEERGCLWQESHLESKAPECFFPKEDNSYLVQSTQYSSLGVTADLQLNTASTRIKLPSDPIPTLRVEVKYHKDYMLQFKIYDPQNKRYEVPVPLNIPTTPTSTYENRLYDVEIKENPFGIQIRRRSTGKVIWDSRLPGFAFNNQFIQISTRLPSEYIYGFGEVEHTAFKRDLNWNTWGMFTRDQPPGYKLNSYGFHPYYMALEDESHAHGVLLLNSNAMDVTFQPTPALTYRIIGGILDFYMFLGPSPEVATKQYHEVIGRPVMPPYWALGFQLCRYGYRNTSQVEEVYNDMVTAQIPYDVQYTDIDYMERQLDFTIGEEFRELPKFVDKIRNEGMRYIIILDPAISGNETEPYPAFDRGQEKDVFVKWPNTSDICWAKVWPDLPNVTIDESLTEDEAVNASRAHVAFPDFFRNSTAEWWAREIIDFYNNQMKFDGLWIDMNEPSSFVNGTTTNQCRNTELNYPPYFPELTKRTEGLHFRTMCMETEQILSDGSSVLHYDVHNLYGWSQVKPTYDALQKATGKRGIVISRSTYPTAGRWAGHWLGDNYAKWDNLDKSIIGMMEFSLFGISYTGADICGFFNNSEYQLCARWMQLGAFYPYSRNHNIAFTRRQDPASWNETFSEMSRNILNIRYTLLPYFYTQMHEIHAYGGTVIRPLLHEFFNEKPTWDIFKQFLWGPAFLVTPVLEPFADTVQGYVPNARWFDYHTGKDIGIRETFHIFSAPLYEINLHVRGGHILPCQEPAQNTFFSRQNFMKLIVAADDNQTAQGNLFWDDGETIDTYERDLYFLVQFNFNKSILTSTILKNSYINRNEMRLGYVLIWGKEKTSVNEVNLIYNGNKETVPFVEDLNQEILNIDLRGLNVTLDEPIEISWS
Description: (§1) Porcine Intestinal Sucrase and Maltase. A sucrase-isomaltase complex was extracted from pig small intestine by treatment with urea and then solubilized by digestion with papain. The enzyme-complex was recovered by ethanol precipitation and then further purified by cellulose DE-52 anion exchange chromatography. The activity of sucrase was assayed by incubating an appropriate amount of enzyme at 37° C. in a final volume of 150 μ1 containing 25 mM sodium citrate buffer, pH 6.0, and 30 mM sucrose as substrate. After 30 min. the enzyme was inactivated by heating at 100° C. for 3 min, the reaction mixture centrifuged at 15000×g for 15 min and a 50 µl aliquot of the supernatant removed and the enzymereleased glucose determined by the glucose oxidase-peroxidase method described by Trinder, Ann. Clin. Biochem. 6, 24 (1969). Under the standard assay conditions, the release of glucose was linear up to 10% hydrolysis of the substrate. […] Maltase activity associated with the sucrase-isomaltase complex [Kolinska and Semenze, Biochim. Biophys. Acta 146, 181 (1967)] was assayed in a manner similar to sucrase except that the substrate was 30 mM maltose. Under the standard assay conditions release of glucose was linear up to 8% hydrolysis of the substrate. The specific activity of maltase was 15.2 units/mg protein.
Inhibition constants for the various DNJ derivatives and castanospermine were determined from Lineweaver-Burk plots of the enzyme-catalyzed reaction in the presence and absence of different fixed concentrations of each inhibitor. Incubations using sucrase were for 30 min at a concentration of 90 milliunits/ml and for maltase were for 12 min at a concentration of 80 milliunits/ml.

[3] = target: T3, Porcine Intestinal Maltase (Sus scrofa, UniProt P56729); test: Inhibition constants against porcine intestinal maltase; type: biochemical
T3 construct: both chains cut from one SI precursor
T3 sequence (P56729 with tags, fused parts or gaps): as above
Description: as §1, with “Under the standard assay conditions release of glucose was linear up to 8% hydrolysis of the substrate. The specific activity of maltase was 15.2 units/mg protein.” left out
Inhibition constants for the various DNJ derivatives and castanospermine were determined from Lineweaver-Burk plots of the enzyme-catalyzed reaction in the presence and absence of different fixed concentrations of each inhibitor. […]

[4] = system: human immunodeficiency virus (HIV); details: at noncytotoxic concentrations; cited from earlier work
[5] = system: bovine intestinal alkaline phosphatase; test: Dephosphorylation by alkaline phosphatase (biolability of the phosphate group); type: in vitro ADME; details: 1 mM compound, 130 U/ml enzyme, 37° C., pH 9.5, 16 h, assayed by HPAEC
Description: N-Butyldeoxynojirimycin-6-phosphate (1 mM) was incubated with bovine intestinal alkaline phosphatase (Sigma Type VII, 130 U/ml) at 37° C. n 0.1 m Na2 Co3 /NaHCO3 buffer, pH 9.5.

[6] = porcine liver microsomes, substrate [14C-Glc]Glc3Man9GlcNAc2 0.044 μM, pH 7.0, 37° C., competitive inhibition assumed, read-out: Ki Microsomal α-Glucosidase I
[7] = pig small intestine, 30 mM sucrose, pH 6.0, 37° C., 30 min, Lineweaver-Burk plots, read-out: Ki Intestinal Sucrase

SMILES	Ki [1, 6] [µM]	Ki [2, 7] [µM]	Ki [1] [µM]	Ki [2] [µM]	Inhibition of sucrase (in words) [2]	Inhibition of maltase (in words) [3]	Reduction of virus titer [4]	Inhibition of α-glucosidase I (in words) [1]	Dephosphorylation by alkaline phosphatase ([5]; listed as N-Butyldeoxynojirimycin-6-phosphate)	Dephosphorylation by alkaline phosphatase ([5]; listed as N-butyl-deoxynojirimycin-6-phosphate)
O[C@H]1[C@H](O)[C@@H](O)CN2CC[C@H](O)[C@H]12 [Castanospermine, castanospermine]	0.04	0.064	–	–	–	–	–	–	–	–
OC[C@H]1NC[C@H](O)[C@@H](O)[C@@H]1O [DNJ, deoxynojirimycin]	–	–	0.83	0.05	–	–	–	–	–	–
O=P(O)(O)OC[C@H]1NC[C@H](O)[C@@H](O)[C@@H]1O [DNJ-6-P, deoxynojirimycin-6-phosphate]	6600	520	–	–	–	–	–	–	–	–
CCCCN1C[C@H](O)[C@@H](O)[C@H](O)[C@H]1CO [N-BuDNJ, N-butyldeoxynojirimycin]	–	–	0.22	0.18	potent inhibitor	potent inhibitor	greater than five logarithms	–	–	–
CCCCN1C[C@H](O)[C@@H](O)[C@H](O)[C@H]1COP(=O)(O)O [N-BuDNJ-6-P, N-butyldeoxynojirimycin-6-phosphate]	4000	1500	–	–	very weak inhibitor	very weak inhibitor	–	very weak inhibitor	completely dephosphorylated	completely dephosphorylted
